SMILES strings stand for the structures. *1 amine or outer side, *2 acyl side, *3 side chain or, on linkers, in order; H or OH if unused. Where a SMILES comes first, the peptide text is derived from it. Bridges are numbered along the chain shown (N, C = ends). [ ]: non-standard residue; d: D form. The star is where a group is joined. X2 = O=C(O)CN1CCN(CC(=O)O)CCN(CC(=O)N[C@@H](CCC(=O)NC[C@H](O)[C@@H](O)[C@H](O)[C@H](O)CO)C(=O)*)CCN(CC(=O)O)CC1; NH(1-deoxy-D-glucityl) = OC[C@@H](O)[C@@H](O)[C@H](O)[C@@H](O)CN*; DOTA = O=C(O)CN1CCN(CC(=O)O)CCN(CC(=O)*)CCN(CC(=O)O)CC1; Trp(5-Cl) = N[C@@H](Cc1c[nH]c2ccc(Cl)cc12)C(=O)O; Pyridine(2,6-diCH2) = c1cc(C[*:1])nc(C[*:2])c1; Pro(4R-NH2) = N[C@H]1CN[C@H](C(=O)O)C1; Glutaryl = O=C(CCCC(=O)[*:2])[*:1]; PEG6 = NCCOCCOCCOCCOCCOCCOCCC(=O)O; Hyp = O=C(O)[C@@H]1C[C@@H](O)CN1; X1 = O=C(CN1CCC(N[*:1])CC1)[*:2]; hSer = N[C@@H](CCO)C(=O)O; Api = NC1(C(=O)O)CCNCC1; Thp = NC1(C(=O)O)CCOCC1

For the assay, the target named is T1, GIPR (CHO-K1-hGIPR cells) (Homo sapiens, UniProt P48546).
T1 construct: host or cells: CHO-K1
T1 sequence (P48546 22-466): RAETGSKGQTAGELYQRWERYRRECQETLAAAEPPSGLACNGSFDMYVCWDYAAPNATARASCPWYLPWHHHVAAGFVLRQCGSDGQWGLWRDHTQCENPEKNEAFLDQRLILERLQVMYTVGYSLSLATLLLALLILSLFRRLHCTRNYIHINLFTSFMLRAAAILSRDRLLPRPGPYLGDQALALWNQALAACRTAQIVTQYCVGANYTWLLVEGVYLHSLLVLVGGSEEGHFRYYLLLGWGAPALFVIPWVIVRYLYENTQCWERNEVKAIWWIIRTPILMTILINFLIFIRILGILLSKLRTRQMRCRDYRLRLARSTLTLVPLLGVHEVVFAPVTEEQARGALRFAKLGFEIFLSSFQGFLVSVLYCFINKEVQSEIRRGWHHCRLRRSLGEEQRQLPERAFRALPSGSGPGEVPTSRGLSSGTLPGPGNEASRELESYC
The assay is described as follows: FACS binding assay. Conditions: competition with 20 nM GIP-057, 4° C., 1 hour, read-out: pIC50 Category (converted). The method, boiled down: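 Peptide binding read by flow cytometry as APC-channel median fluorescence, fitted with a four-parameter logistic to yield EC50 or IC50. Cells were hGIPR-transfected CHO-K1 in PBS with 1% FCS, detected with 1 μg/mL APC-streptavidin, 30 min on ice.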
For `CC[C@H](C)[C@@H]1NC(=O)[C@H](CC(C)C)NC(=O)C2(CCN(C(=O)CN3CCN(CC(=O)O)CCN(CC(=O)O)CCN(CC(=O)O)CC3)CC2)NC(=O)[C@@H](NC(=O)[C@@H](CC(C)C)NC(=O)[C@H](CCC(=O)O)NC(=O)[C@@H]2C[C@@H](N)CN2C(=O)[C@H](Cc2c[nH]c3ccc(Cl)cc23)NC(=O)[C@H](Cc2c[nH]c3ccccc23)NC(=O)[C@H](CCO)NC(=O)CCCC(=O)NC[C@H](O)[C@@H](O)[C@H](O)[C@H](O)CO)CSCc2cccc(n2)CSC[C@@H](C(=O)NC2CCN(CC(=O)N[C@H](CCC(=O)NC[C@H](O)[C@@H](O)[C@H](O)[C@H](O)CO)C(N)=O)CC2)NC1=O` [GIP-034, AGLU-Glutar-Hse-Trp-5Clw-Tap-Glu-leu-[Cys(2Lut)-Apc(DOTA)-Leu-Ile-Cys]-APAc-glu(AGLU)-NH2] ({NH(1-deoxy-D-glucityl)-Glutaryl}-[hSer]W[Trp(5-Cl)][Pro(4R-NH2)]E[dL]C[Api](DOTA)LIC[X1][dE](NH(1-deoxy-D-glucityl))-NH2; linker 7-11 via Pyridine(2,6-diCH2)), the IC50 was < 0.01 µM.

With `CC[C@H](C)[C@@H]1NC(=O)[C@H](CC(C)C)NC(=O)C2(CCN(C(=O)CN3CCN(CC(=O)O)CCN(CC(=O)O)CCN(CC(=O)O)CC3)CC2)NC(=O)[C@@H](NC(=O)[C@H](CC(C)C)NC(=O)[C@H](CCC(=O)O)NC(=O)[C@@H]2C[C@@H](N)CN2C(=O)[C@H](Cc2c[nH]c3ccc(Cl)cc23)NC(=O)[C@H](Cc2c[nH]c3ccccc23)NC(=O)[C@H](CC(=O)O)NC(=O)CCCC(=O)NC[C@H](O)[C@@H](O)[C@H](O)[C@H](O)CO)CSCc2cccc(n2)CSC[C@@H](C(=O)NC2CCN(CC(=O)N[C@H](CCC(=O)NC[C@H](O)[C@@H](O)[C@H](O)[C@H](O)CO)C(N)=O)CC2)NC1=O` [GIP-035, AGLU-Glutar-Asp-Trp-5Clw-Tap-Glu-Leu-[Cys(2Lut)-Apc(DOTA)-Leu-Ile-Cys]-APAc-glu(AGLU)-NH2] ({NH(1-deoxy-D-glucityl)-Glutaryl}-DW[Trp(5-Cl)][Pro(4R-NH2)]ELC[Api](DOTA)LIC[X1][dE](NH(1-deoxy-D-glucityl))-NH2; linker 7-11 via Pyridine(2,6-diCH2)), the IC50 is < 0.01 µM. To `CC[C@H](C)[C@@H]1NC(=O)[C@H](CC(C)C)NC(=O)C2(CCOCC2)NC(=O)[C@@H](NC(=O)[C@@H](CC(C)C)NC(=O)[C@H](CCC(=O)O)NC(=O)[C@@H]2C[C@@H](O)CN2C(=O)[C@H](Cc2c[nH]c3ccc(Cl)cc23)NC(=O)[C@H](Cc2c[nH]c3ccccc23)NC(=O)[C@H](CC(=O)O)NC(=O)[C@@H](CCC(=O)NC[C@H](O)[C@@H](O)[C@H](O)[C@H](O)CO)NC(=O)CN2CCN(CC(=O)O)CCN(CC(=O)O)CCN(CC(=O)O)CC2)CSCc2cccc(n2)CSC[C@@H](C(=O)NC2CCN(CC(=O)N[C@H](CCC(=O)NC[C@H](O)[C@@H](O)[C@H](O)[C@H](O)CO)C(N)=O)CC2)NC1=O` [GIP-036, DOTA-glu(AGLU)-Asp-Trp-5Clw-Hyp-Glu-leu-[Cys(2Lut)-Thp-Leu-Ile-Cys]-APAc-glu(AGLU)-NH2] ({DOTA}-[dE](NH(1-deoxy-D-glucityl))DW[Trp(5-Cl)][Hyp]E[dL]C[Thp]LIC[X1][dE](NH(1-deoxy-D-glucityl))-NH2; linker 8-12 via Pyridine(2,6-diCH2)) belongs < 0.01 µM; to `CC[C@H](C)[C@@H]1NC(=O)[C@H](CC(C)C)NC(=O)C2(CCOCC2)NC(=O)[C@@H](NC(=O)[C@@H](CC(C)C)NC(=O)[C@H](CCC(=O)O)NC(=O)[C@@H]2C[C@@H](N)CN2C(=O)[C@H](Cc2c[nH]c3ccc(Cl)cc23)NC(=O)[C@H](Cc2c[nH]c3ccccc23)NC(=O)[C@H](CC(=O)O)NC(=O)[C@@H](CCC(=O)NC[C@H](O)[C@@H](O)[C@H](O)[C@H](O)CO)NC(=O)CCOCCOCCOCCOCCOCCOCCNC(=O)CN2CCN(CC(=O)O)CCN(CC(=O)O)CCN(CC(=O)O)CC2)CSCc2cccc(n2)CSC[C@@H](C(=O)NC2CCN(CC(=O)N[C@H](CCC(=O)NC[C@H](O)[C@@H](O)[C@H](O)[C@H](O)CO)C(N)=O)CC2)NC1=O` [GIP-037, DOTA-PEG6-glu(AGLU)-Asp-Trp-5Clw-Tap-Glu-leu-[Cys(2Lut)-Thp-Leu-Ile-Cys]-APAc-glu(AGLU)-NH2] ({DOTA-PEG6}-[dE](NH(1-deoxy-D-glucityl))DW[Trp(5-Cl)][Pro(4R-NH2)]E[dL]C[Thp]LIC[X1][dE](NH(1-deoxy-D-glucityl))-NH2; linker 8-12 via Pyridine(2,6-diCH2)), < 0.01 µM; to `CC[C@H](C)[C@@H]1NC(=O)[C@H](CC(C)C)NC(=O)C2(CCN(C(=O)CN3CCN(CC(=O)O)CCN(CC(=O)O)CCN(CC(=O)O)CC3)CC2)NC(=O)[C@@H](NC(=O)[C@@H](CC(C)C)NC(=O)[C@H](CCC(=O)O)NC(=O)[C@@H]2C[C@@H](N)CN2C(=O)[C@H](Cc2c[nH]c3ccc(Cl)cc23)NC(=O)[C@H](Cc2c[nH]c3ccccc23)NC(=O)[C@H](CC(=O)O)NC(=O)CCCC(=O)NC[C@H](O)[C@@H](O)[C@H](O)[C@H](O)CO)CSCc2cccc(n2)CSC[C@H](C(=O)NC2CCN(CC(=O)N[C@H](CCC(=O)NC[C@H](O)[C@@H](O)[C@H](O)[C@H](O)CO)C(N)=O)CC2)NC1=O` [GIP-038, AGLU-Glutar-Asp-Trp-5Clw-Tap-Glu-leu-[Cys(2Lut)-Apc(DOTA)-Leu-Ile-cys]-APAc-glu(AGLU)-NH2] ({NH(1-deoxy-D-glucityl)-Glutaryl}-DW[Trp(5-Cl)][Pro(4R-NH2)]E[dL]C[Api](DOTA)LI[dC][X1][dE](NH(1-deoxy-D-glucityl))-NH2; linker 7-11 via Pyridine(2,6-diCH2)), < 0.01 µM. Consider `CC[C@H](C)[C@@H]1NC(=O)[C@H](CC(C)C)NC(=O)C2(CCN(C(=O)CN3CCN(CC(=O)O)CCN(CC(=O)O)CCN(CC(=O)O)CC3)CC2)NC(=O)[C@@H](NC(=O)[C@@H](CC(C)C)NC(=O)[C@H](CCC(=O)O)NC(=O)[C@@H]2C[C@@H](O)CN2C(=O)[C@H](Cc2c[nH]c3ccc(Cl)cc23)NC(=O)[C@H](Cc2c[nH]c3ccccc23)NC(=O)[C@H](CC(=O)O)NC(=O)CN2CCC(NC(=O)CCCC(=O)NC[C@H](O)[C@@H](O)[C@H](O)[C@H](O)CO)CC2)CSCc2cccc(n2)CSC[C@@H](C(=O)N[C@H](CCCCNC(=O)CCOCCOCCOCCOCCOCCOCCOCCOCCOCCOCCOCCOCCOCCOCCOCCOCCOCCOCCOCCOCCOCCOCCOCCOCCOCCOCCOCCOCCOCCOCCOCCOCCOCCOCCOCCOCCOC)C(N)=O)NC1=O` [GIP-039, AGLU-Glutar-APAc-Asp-Trp-5Clw-Hyp-Glu-leu-[Cys(2Lut)-Apc(DOTA)-Leu-Ile-Cys]-lys(MeO36PEG)-NH2], for which the IC50 was 0.01 to 0.0794 µM.

On to `CCOCCOCCOCCOCCOCCOCCOCCOCCOCCOCCOCCOCCOCCOCCOCCOCCOCCOCCOCCOCCOCCOCCOCCOCCOCCOCCOCCOCCOCCOCCOCCOCCOCCOCCOCCOCCOCC(=O)NC1CCN(CC(=O)N[C@@H](CC(=O)O)C(=O)N[C@@H](Cc2c[nH]c3ccccc23)C(=O)N[C@@H](Cc2c[nH]c3ccc(Cl)cc23)C(=O)N2C[C@H](O)C[C@H]2C(=O)N[C@@H](CCC(=O)O)C(=O)N[C@H](CC(C)C)C(=O)N[C@H]2CSCc3cccc(n3)CSC[C@@H](C(=O)NC3CCN(CC(=O)N[C@H](CCC(=O)NC[C@H](O)[C@@H](O)[C@H](O)[C@H](O)CO)C(N)=O)CC3)NC(=O)[C@H]([C@@H](C)CC)NC(=O)[C@H](CC(C)C)NC(=O)C3(CCN(C(=O)CN4CCN(CC(=O)O)CCN(CC(=O)O)CCN(CC(=O)O)CC4)CC3)NC2=O)CC1` [GIP-041, MeO36PEG-APAc-Asp-Trp-5Clw-Hyp-Glu-leu-[Cys(2Lut)-Apc(DOTA)-Leu-Ile-Cys]-APAc-glu(AGLU)-NH2], for which the IC50 is 0.01 to 0.0794 µM. To `CCOCCOCCOCCOCCOCCOCCOCCOCCOCCOCCOCCOCCOCCOCCOCCOCCOCCOCCOCCOCCOCCOCCOCCOCCOCCOCCOCCOCCOCCOCCOCCOCCOCCOCCOCCOCCOCC(=O)NC1CCN(CC(=O)N[C@@H](CC(=O)O)C(=O)N[C@@H](Cc2c[nH]c3ccccc23)C(=O)N[C@@H](Cc2c[nH]c3ccc(Cl)cc23)C(=O)N2C[C@H](N)C[C@H]2C(=O)N[C@@H](CCC(=O)O)C(=O)N[C@H](CC(C)C)C(=O)N[C@H]2CSCc3cccc(n3)CSC[C@@H](C(=O)NC3CCN(CC(=O)N[C@H](CCC(=O)NC[C@H](O)[C@@H](O)[C@H](O)[C@H](O)CO)C(N)=O)CC3)NC(=O)[C@H]([C@@H](C)CC)NC(=O)[C@H](CC(C)C)NC(=O)C3(CCN(C(=O)CN4CCN(CC(=O)O)CCN(CC(=O)O)CCN(CC(=O)O)CC4)CC3)NC2=O)CC1` [GIP-042, MeO36PEG-APAc-Asp-Trp-5Clw-Tap-Glu-leu-[Cys(2Lut)-Apc(DOTA)-Leu-Ile-Cys]-APAc-glu(AGLU)-NH2] belongs 0.01 to 0.0794 µM; to `CC[C@H](C)[C@@H]1NC(=O)[C@H](CC(C)C)NC(=O)C2(CCN(C(=O)[C@H](CCC(=O)NC[C@H](O)[C@@H](O)[C@H](O)[C@H](O)CO)NC(=O)CN3CCN(CC(=O)O)CCN(CC(=O)O)CCN(CC(=O)O)CC3)CC2)NC(=O)[C@@H](NC(=O)[C@@H](CC(C)C)NC(=O)[C@H](CCC(=O)O)NC(=O)[C@@H]2C[C@@H](O)CN2C(=O)[C@H](Cc2c[nH]c3ccc(Cl)cc23)NC(=O)[C@H](Cc2c[nH]c3ccccc23)NC(=O)[C@H](CC(=O)O)NC(=O)CN2CCC(NC(=O)CCCC(=O)NC[C@H](O)[C@@H](O)[C@H](O)[C@H](O)CO)CC2)CSCc2cccc(n2)CSC[C@@H](C(=O)NC2CCN(CC(=O)N[C@H](CCC(=O)NC[C@H](O)[C@@H](O)[C@H](O)[C@H](O)CO)C(N)=O)CC2)NC1=O` [GIP-043, AGLU-Glutar-APAc-Asp-Trp-5Clw-Hyp-Glu-leu-[Cys(2Lut)-Apc(DOTA-glu(AGLU))-Leu-Ile-Cys]-APAc-glu(AGLU)-NH2] ({NH(1-deoxy-D-glucityl)-Glutaryl}-[X1]DW[Trp(5-Cl)][Hyp]E[dL]C[Api](X2)LIC[X1][dE](NH(1-deoxy-D-glucityl))-NH2; linker 8-12 via Pyridine(2,6-diCH2)), < 0.01 µM.

The record behind these values is patent US20250296971A1, “GASTRIC INHIBITORY PEPTIDE RECEPTOR LIGANDS” (priority 2021, published 2025).
